# Assay results reported in patent US12145920B2, “Lanthionine c-like protein 2 ligands, cells prepared therewith, and therapies using same” (NImmune Biopharma, Inc., priority 2019, dated 2024).
# Assays:
# Naïve CD4+ T cells = assay: In vitro Treg differentiation of naive CD4+ T cells with BT-63; type: cell-based, mice
# Procedure: Naïve CD4+ T cells can be isolated from the spleens of mice by magnetic sorting. The isolated cells can be incubated in anti-CD^3/anti-CD28 coated 96 well plates in Treg differentiation media. The Treg differentiation media can be Iscove's Modified Dulbecco's Medium (IMDM) media (ThermoFisher Scientific) supplemented with fetal bovine serum, HEPES, penicillin/streptomycin, L-glutamine, and differentiation agents. The Treg differentiation agents can be 10 nM all-trans-retinoic acid and 5 ng/mL TGF-β. Additional experiments can be conducted comparing differentiation in the Treg differentiation media with and without the addition of 10 ng/mL IL-2 or IL-12. Cells can be incubated with vehicle, 10 nM, or 100 nM BT-63 in differentiation media for 48 hours prior to assay. Prior to assay, cells can be stimulated with PMA and ionomycin for 6 hours.
# Colonic lamina propria lymphocytes and cultured cells can be plated in 96 well plates (6×10^5 cells/well) and processed for immunophenotyping by flow cytometry as previously described. Briefly, cells can be incubated with fluorochrome conjugated antibodies to extracellular markers: CD45, CD4, CD3, CD25, CD8. Samples needing a secondary staining can be incubated with secondary antibodies, or streptavidin-conjugated fluorochrome. The samples can then be fixed and permeabilized. Cells can be incubated with antibodies to intracellular markers: Tbet, IFNγ, IL10, FOXP3, IL17, RORγT. Data can be acquired with a BD FACS Celesta flow cytometer and analyzed using FACS Diva software (BD Pharmingen).
# [1] = system: resiquimod-treated C57BL6 mice; assay: TLR7/9 (resiquimod) induced mouse model of SLE; type: in vivo
# Procedure: Resiquimod model. Resiquimod was prepared in a 1:3 ethanol:acetone mixture to provide 85 micrograms of resiquimod to each mouse. Resiquimod solution was well mixed and applied to the ear of C57BL6 mice three times weekly over a 2-week period. Mice were monitored for signs of disease daily.
# Treatment administration. BT-63 was prepared within a 0.5% methylcellulose (12-15 cP) solution. Dosage used was 20 mg/kg delivered once daily. Mice were weighed on a weekly basis to update dosage formulation. Dosage was calculated based off mean body weights for each gender. Oral dosage was delivered by orogastric gavage of dosage in 0.2 mL volume.
# Immunological analysis. Blood was collected by cardiac puncture into EDTA tube. Plasma was separated following centrifugation and assayed by ELISA for anti-dsDNA antibodies. Urine was collected for assay for albumin content to test for kidney function.
# Spleens were excised, crushed and filtered to provide a cellular suspension. Red blood cells were lysed. Cells were labeled with mixtures of extracellular (CD45, CD3, CD4, CD8, CD19, NK1.1, CD25, F4/80, CD11b, Gr1, CX3CR1, CD64) and intracellular (Tbet, BCL6, FOXP3, IFNγ, IL6, IL10) antibodies in a sequential live staining in 96-well plates in preparation for flow cytometry. Data was captured on a BD FACS Celesta and analyzed using FacsDiva.
# [2] = 2 weeks of oral treatment, 20 mg/kg
smiles,measurement,setting,value
"O=C(CN1CCN(C(=O)c2cccc(-c3nc4ccccc4[nH]3)n2)CC1)c1ccccc1 [BT-63, 2-(4-(6-(1H-benzo[d]imidazol-2-yl)picolinoyl)piperazin-1-yl)-1-phenylethanone]",establishment of a CD25+ FOXP3+ subtype,"Naïve CD4+ T cells; 100 nM, absence of IL-2",significantly increase
same,CD25+ FOXP3+ cells,Naïve CD4+ T cells; IL-12-treated samples,significantly higher levels
same,mixed CD25+ Tbet+ subtype,Naïve CD4+ T cells; Treg differentiation with or without IL-2,not be statistically altered
same,CD25+ Tbet+ cells,Naïve CD4+ T cells; addition of IL-12,dose-dependent protection
same,STAT5a phosphorylation,"Naïve CD4+ T cells; base Treg differentiation media, also with IL-2 or IL-12",phosphorylated in a greater ratio
same,FOXO1 phosphorylation,"Naïve CD4+ T cells; base media and media containing IL-2, not IL-12",similarly be affected
same,CD25+ FOXP3+ cells,"Naïve CD4+ T cells; concentrations as low as 10 nM, presence of IL-2",significantly more
same,concentration of anti-dsDNA antibodies in plasma,[1]; [2],reduces
same,urine albumin content,[1]; [2],reduction
same,IFNγ+ CD8+ T cells,"[1]; spleen, 2 weeks, 20 mg/kg oral",reduced
same,IL6+ cells,"[1]; spleen, 2 weeks, 20 mg/kg oral",reduced
